{"source": "patent US20120128628A1", "about": "“COMBINATION OF A NUCLEOSIDE POLYMERASE INHIBITOR WITH A MACROCYCLIC PROTEASE INHIBITOR AND USE THEREOF IN THE TREATMENT OF HEPATITIS C, LIVER FIBROSIS AND IMPAIRED LIVER FUNCTION (as amended)” (priority 2009, published 2012)", "key": {"HCV replication": {"system": "HCV replication", "settings": "cited from earlier work"}, "[1]": {"system": "chronic hepatitis C genotype 1", "assay": "HCV RNA viral load determination (COBAS AmpilPrep/COBAS Taqman HCV Test RUO) in a dose ranging study in patients", "type": "in vivo, Hepatitis C virus", "settings": "monotherapy 750 mg, bid; after 7 days of treatment", "method": "A randomized, double-blind, placebo controlled, dose ranging study of Compound 1a and Compound 2 in adult patients with chronic hepatitis C genotype 1 was conducted. Approximately 54 treatment naïve males and females between 18 and 65 years of age (inclusive) with genotype 1 HCV infection who had not previously been treated with an interferon or investigational HCV therapeutic agent were enrolled. Approximately an additional 20 treatment patients who had failed treatment with the current standard of care (null, partial responders and relapsers) were enrolled. […] Subjects with liver cirrhosis or incomplete/transition to cirrhosis, or other forms of liver disease, anemia, HIV or HBV infection, hepatocellular carcinoma, cardiac disease or renal disease were excluded from this particular protocol, as well as pregnant or lactating women, women of childbearing potential, and male partners of women who are pregnant or lactating.\nSeven groups, Groups I, II, III, IV, V, VI and VII, of subjects were studied. Blood samples were collected at time points to determine pharmacokinetics parameters, including Tmax, Cmax, Kel, T1/2, AUC, CL/F, Vd/F and accumulation ratio.\nThe specifics of Groups I, II, III, IV, V, VI and VII are shown in Table 1 below and pictorially in FIGS. 2 and 3. Group I included two arms with 8 subjects in Arm 1 and 8 subjects in Arm 2. […]"}, "[2]": {"settings": "prodrug compared to Compound 1; cited from earlier work"}}}
{"compound": "C[C@@]1(F)[C@H](O)[C@@H](CO)O[C@H]1n1ccc(N)nc1=O", "note": "[Compound 1, β-D-2′-deoxy-2′-fluoro-2′-C-methylcytidine]", "values": [{"measurement": "inhibiting HCV replication", "setting": "HCV replication", "value": "effective in inhibiting HCV replication"}]}
{"compound": "CC(C)(C)OC(=O)N[C@H]1CCCCCC=C[C@@H]2C[C@@]2(C(=O)NS(=O)(=O)C2CC2)NC(=O)[C@@H]2C[C@@H](OC(=O)N3Cc4cccc(F)c4C3)CN2C1=O", "note": "[Compound 2, (1S,4R,6S,14S,18R)-4-Fluoro-1,3-dihydro-isoindole-2-carboxylic acid 14-tert-butoxycarbonylamino-4-cyclopropanesulfonylaminocarbonyl-2,15-dioxo-3,16-diaza-tricyclo[14.3.0.04,6]nonadec-7-en-18-yl ester]", "values": [{"measurement": "inhibiting HCV replication", "setting": "HCV replication", "value": "effective in inhibiting HCV replication"}]}
{"compound": "diisobutyl ester prodrug of β-D-2′-deoxy-2′-fluoro-2′-C-methylcytidine [Compound 1a]", "values": [{"measurement": "mean log change from baseline of HCV RNA viral load", "setting": "[1]", "value": "−1.3", "unit": "log10 IU/mL"}, {"measurement": "anti-viral efficacy", "setting": "HCV replication; prodrug compared to Compound 1", "value": "improved anti-viral efficacy"}, {"measurement": "permeability", "setting": "[2]", "value": "increased permeability"}, {"measurement": "plasma exposure", "setting": "[2]", "value": "increased plasma exposure"}]}
